Molecular target: T1, B-cell receptor CD22 (Homo sapiens, UniProt P20273)
T1 sequence (P20273 whole entry): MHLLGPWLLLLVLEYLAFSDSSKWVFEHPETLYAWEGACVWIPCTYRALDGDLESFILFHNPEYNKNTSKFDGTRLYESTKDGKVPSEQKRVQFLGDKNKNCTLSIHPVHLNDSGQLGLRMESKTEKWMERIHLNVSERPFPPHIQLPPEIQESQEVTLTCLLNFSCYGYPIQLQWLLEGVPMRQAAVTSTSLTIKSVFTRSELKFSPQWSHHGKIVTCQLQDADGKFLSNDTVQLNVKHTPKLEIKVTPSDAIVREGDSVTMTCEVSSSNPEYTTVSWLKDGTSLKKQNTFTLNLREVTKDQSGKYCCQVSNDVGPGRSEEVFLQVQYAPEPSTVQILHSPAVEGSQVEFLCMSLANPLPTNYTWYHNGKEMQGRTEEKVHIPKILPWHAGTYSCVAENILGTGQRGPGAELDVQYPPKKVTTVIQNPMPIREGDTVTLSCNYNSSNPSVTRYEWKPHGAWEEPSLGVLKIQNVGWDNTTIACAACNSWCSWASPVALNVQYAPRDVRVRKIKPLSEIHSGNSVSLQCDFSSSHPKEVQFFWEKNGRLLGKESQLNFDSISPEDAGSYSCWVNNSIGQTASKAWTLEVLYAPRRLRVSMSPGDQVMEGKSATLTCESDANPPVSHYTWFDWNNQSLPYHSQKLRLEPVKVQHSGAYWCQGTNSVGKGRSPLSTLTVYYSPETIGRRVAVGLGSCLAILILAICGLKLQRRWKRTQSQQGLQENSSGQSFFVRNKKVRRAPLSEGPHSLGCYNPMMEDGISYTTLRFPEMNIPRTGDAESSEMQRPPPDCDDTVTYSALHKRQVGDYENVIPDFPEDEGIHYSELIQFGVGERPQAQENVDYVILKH
Experiment: Binding affinity to human SIGLEC2 by saturation transfer difference-titration assay

Kd: 2000 µM
SMILES: CC(=O)N[C@H]1[C@@H]([C@H](O)[C@H](O)CO)O[C@@](O[C@H]2[C@@H](O)[C@@H](CO)O[C@@H](O[C@H]3[C@H](O)[C@@H](O)[C@H](OCC[Si](C)(C)C)O[C@@H]3CO)[C@@H]2O)(C(=O)O)C[C@@H]1O[C@H]1O[C@H](CO)[C@H](O)[C@H](O[C@@H]2O[C@@H]([C@H](O)CO)[C@H](O)[C@H]2O)[C@H]1O (stereo in doubt)

Reference: ChEMBL document CHEMBL1165912, “Synthesis and binding analysis of unique AG2 pentasaccharide to human Siglec-2 using NMR techniques” (Bioorg Med Chem, 2010)
